Measured values from patent US20060293374A1, “Substituted isothiazolones” (priority 2005, published 2006).

How the values were obtained:
[1] = tested on: Neutrophil LTB4; assay: Neutrophil LTB4 assay (calcium ionophore challenge, EIA); format: cell-based; settings: test concentration of 5 μM, human neutrophils, calcium ionophore 1 μM; for inhibition at 5 µM: Neutrophil, read-out: LTB4 percent inhibition
Method: Neutrophils purified from human blood were resuspended in HBSS buffer containing calcium and magnesium to a cell density of 1×10^6/mL. Purified neutrophils were then incubated with test compounds at a test concentration of 5 μM for 15 min at 37° C. Following incubation, the cells were challenged with calcium ionophore (1 μM final) for 15 minutes at 37° C. Negative control wells were incubated with equal volume of vehicle. The reaction was stopped by transferring the plate to ice for 5 minutes. The plate was centrifuged at 1500 RPM for 5 min at 4° C. LTB4 was calculated in cell free supernatants by EIA (Assay Design Inc).

[2] = tested on: TXB2 Released by Human Platelets; assay: Ionophore and arachidonic acid induced TXB2 released by human platelets (EIA); format: cell-based; settings: human platelet-rich plasma; for IC50: challenge with calcium ionophore (10 μM) or arachidonic acid (50 μM); for inhibition at 1 µM: test concentration of 1 μM, calcium ionophore or arachidonic acid challenge, read-out: TXB2 percent inhibition
Method: Ionophore and Arachidonic Acid Induced TXB2 Released by Human Platelets
The plate was incubated for 15 minutes at 37° C. Following incubation, platelets were challenged with calcium ionophore (final 10 μM) or arachidonic acid (AA) (final 50 μM) and the plate was further incubated at 37° C. for 15 min. The plate was transferred to an ice bed for 5 min in order to stop the reaction. Supernatants were assayed for TXB2 production by EIA (Assay Design Inc) after diluting with assay buffer (Assay Design Inc).

Row | SMILES | inhibition at 5 µM [1] [%] | IC50 [2] [nM] | inhibition at 1 µM [2] [%] | LTB4 percent inhibition [1] [%]
1 | O=c1c(Cl)c(Cl)sn1Cc1ccc(C#Cc2cccc(Cl)c2)cc1 [Cpd 28, 4,5-dichloro-2-[4-(3-chlorophenylethynyl)-benzyl]-isothiazol-3-one] | 100 | 3500 | – | –
2 | C#Cc1ccc(Cn2sc(Cl)cc2=O)cc1 [Cpd 40, 5-chloro-2-(4-ethynyl-benzyl)-isothiazol-3-one] | 100 | 200 | – | –
3 | Cc1nc(-c2cccc(-n3sc(Cl)cc3=O)c2)c(Cl)s1 [Cpd 44, 5-chloro-2-[3-(2-methyl-5-chloro-thiazol-4-yl)-phenyl]-isothiazol-3-one] | 69 | 2000 | – | –
4 | O=c1ccsn1Cc1ccc(-c2csnn2)cc1 [Cpd 22, 2-(4-[1,2,3]thiadiazol-4-yl-benzyl)-isothiazol-3-one] | 50 | 1200 | – | –
5 | O=c1cc(Cl)sn1Cc1ccc(-c2ccco2)cc1 [Cpd 23, 5-chloro-2-(4-furan-2-yl-benzyl)-isothiazol-3-one] | 100 | 300 | – | –
6 | O=c1ccsn1Cc1csc2ccc(Cl)cc12 [Cpd 20, 2-(5-chloro-benzo[b]thiophen-3-ylmethyl)-isothiazol-3-one] | 88 | 1000 | – | –
7 | O=c1c(Cl)c(Cl)sn1C(c1ccccc1)c1ccccn1 (stereo not drawn) [Cpd 33, 4,5-dichloro-2-(phenyl-pyridin-2-yl-methyl)-isothiazol-3-one] | 95 | 200 | – | –
8 | O=c1ccsn1Cc1ccc2c(c1)CCO2 [Cpd 17, 2-(2,3-dihydro-benzofuran-5-ylmethyl)-isothiazol-3-one] | 39 | 5800 | – | –
9 | O=c1cc(Cl)sn1Cc1cccc(-c2csnn2)c1 [Cpd 32, 5-chloro-2-(3-[1,2,3]thiadiazol-4-ylbenzyl)-isothiazol-3-one] | 100 | 600 | – | –
10 | O=c1ccsn1Cc1nc(-c2cccs2)sc1Cl [Cpd 63, 2-(5-chloro-2-thiophen-2-yl-thiazol-4-ylmethyl)-isothiazol-3-one] | 86 | – | 42 | –
11 | O=c1c(Cl)c(Cl)sn1[C@H]1C[C@@H]1c1ccccc1 [Cpd 39, (1S,2R)-4,5-dichloro-2-(2-phenyl-cyclopropyl)-isothiazol-3-one] | 94 | 200 | – | –
12 | O=c1ccsn1Cc1ccc2ccccc2c1 [Cpd 13, 2-naphthalen-2-ylmethyl-isothiazol-3-one] | 78 | 1300 | – | –
13 | O=c1c(Cl)c(Cl)sn1Cc1csc2ccc(Cl)cc12 [Cpd 18, 4,5-dichloro-2-(5-chloro-benzo[b]thiophen-3-ylmethyl)-isothiazol-3-one] | 71 | 280 | – | –
14 | O=c1cc(Cl)sn1Cc1csc2ccccc12 [Cpd 11, 2-benzo[b]thiophen-3-ylmethyl-5-chloro-isothiazol-3-one] | 100 | – | 68 | –
15 | O=c1cc(Cl)sn1Cc1csc2ccc(Cl)cc12 [Cpd 19, 5-chloro-2-(5-chloro-benzo[b]thiophen-3-ylmethyl)-isothiazol-3-one] | 100 | 1000 | – | –
16 | O=c1ccsn1Cc1cccc(-c2ccncc2)c1 [Cpd 50, 2-(3-pyridin-4-yl-benzyl)-isothiazol-3-one] | 100 | 500 | – | –
17 | O=C(c1ccccc1)c1ccc(Cn2sc(Cl)c(Cl)c2=O)cc1 [Cpd 34, 4,5-dichloro-2-(4-benzoylbenzyl)-isothiazol-3-one] | 84 | 400 | – | –
18 | O=c1cc(Cl)sn1Cc1ccc(S(=O)(=O)c2ccccc2)cc1 [Cpd 38, 5-chloro-2-(4-benzenesulfonyl-benzyl)-isothiazol-3-one] | 93 | 900 | – | –
19 | O=c1cc(Cl)sn1Cc1csc(-c2ccccc2)n1 [Cpd 53, 5-chloro-2-(2-phenyl-thiazol-4-ylmethyl)-isothiazol-3-one] | 92 | 400 | – | –
20 | COC(=O)c1ccc(Cn2sc(Cl)cc2=O)cc1 [Cpd 37, 4-(5-chloro-3-oxo-3H-isothiazol-2-ylmethyl)-benzoic acid methyl ester] | 95 | 500 | – | –
21 | CS(=O)(=O)c1ccc(Cn2sc(Cl)c(Cl)c2=O)cc1 [Cpd 29, 4,5-dichloro-2-(4-methanesulfonyl-benzyl)-isothiazol-3-one] | 64 | 300 | – | –
22 | CC(c1cccc2ccccc12)n1sc(Cl)cc1=O (stereo not drawn) [Cpd 5, 5-chloro-2-(1-naphthalen-1-yl-ethyl)-isothiazol-3-one] | 100 | 600 | – | –
23 | CC(c1ccc(S(C)(=O)=O)cc1)n1sc(Cl)c(Cl)c1=O (stereo not drawn) [Cpd 30, 4,5-dichloro-2-[1-(4-methanesulfonyl-phenyl)-ethyl]-isothiazol-3-one] | 100 | 200 | – | –

Row | SMILES | inhibition at 5 µM [1] [%] | IC50 [2] [nM] | inhibition at 1 µM [2] [%] | LTB4 percent inhibition [1] [%]
24 | O=c1ccsn1Cc1ccc(-n2cccn2)cc1 [Cpd 58, 2-(4-pyrazol-1-yl)-benzyl-isothiazol-3-one] | – | 1000 | – | 100
25 | O=c1cc(Cl)sn1Cc1ccc(-n2cccn2)cc1 [Cpd 56, 5-chloro-2-(4-pyrazol-1-yl)-benzyl-isothiazol-3-one] | – | 800 | – | 48
26 | O=c1cc(Cl)sn1[C@H]1C[C@@H]1c1ccccc1 [Cpd 42, (1S,2R)-5-chloro-2-(2-phenyl-cyclopropyl)-isothiazol-3-one] | 61 | 400 | – | –
27 | C=Cc1ccc(Cn2sc(Cl)cc2=O)cc1 [Cpd 27, 5-chloro-2-(4-vinyl-benzyl)-isothiazol-3-one] | 100 | 800 | – | –
28 | O=Cc1cccc(Cn2sc(Cl)cc2=O)c1 [Cpd 59, 5-chloro-2-(3-formylbenzyl)-isothiazol-3-one] | 96 | 600 | – | –
29 | O=CC#Cc1cccc(Cn2sc(Cl)cc2=O)c1 [Cpd 60, [3-(5-chloro-3-oxo-3H-isothiazol-2-ylmethyl)-phenyl]-propynal] | 100 | – | 72 | –
30 | Cc1nc(-c2cccc(-n3sccc3=O)c2)cs1 [Cpd 46, 2-[3-(2-methyl-thiazol-4-yl)-phenyl]-isothiazol-3-one] | 64 | 1000 | – | –
31 | Cc1nc(-c2cccc(-n3sccc3=O)c2)c(Cl)s1 [Cpd 45, 2-[3-(2-methyl-5-chloro-thiazol-4-yl)-phenyl]-isothiazol-3-one] | 100 | 1800 | – | –
32 | O=c1cc(Cl)sn1C1CCc2ccccc21 (stereo not drawn) [Cpd 3, 5-chloro-2-indan-1-yl-isothiazol-3-one] | 86 | 900 | – | –
33 | O=c1c(Cl)c(Cl)sn1Cc1ccc(-c2csnn2)cc1 [Cpd 24, 4,5-dichloro-2-(4-[1,2,3]thiadiazol-4-yl-benzyl)-isothiazol-3-one] | 52 | 500 | – | –
34 | O=c1ccsn1Cc1sc2ccccc2c1Cl [Cpd 8, 2-(3-chloro-benzo[b]thiophen-2-ylmethyl)-isothiazol-3-one] | 74 | 1400 | – | –
35 | O=c1cc(Cl)sn1CC1CCCc2ccccc21 (stereo not drawn) [Cpd 4, 5-chloro-2-(1,2,3,4-tetrahydro-naphthalen-1-ylmethyl)-isothiazol-3-one] | 100 | 3300 | – | –
36 | CC(=O)c1ccc(Cn2sccc2=O)cc1 [Cpd 25, 2-(4-acetylbenzyl)-isothiazol-3-one] | 54 | 1000 | – | –
37 | O=c1cc(Cl)sn1Cc1ccc2ccccc2c1 [Cpd 14, 5-chloro-2-naphthalen-2-ylmethyl-isothiazol-3-one] | 96 | 350 | – | –
38 | O=c1c(Cl)c(Cl)sn1Cc1csc2ccccc12 [Cpd 10, 2-benzo[b]thiophen-3-ylmethyl-4,5-dichloro-isothiazol-3-one] | 100 | – | 84 | –
39 | O=c1[nH]sc(Cl)c1Cc1csc(-c2cccs2)n1 [Cpd 62, 5-chloro-(2-thiophen-2-yl-thiazol-4-ylmethyl)-isothiazol-3-one] | 96 | 800 | – | –
40 | O=c1ccsn1Cc1csc(-c2cccs2)n1 [Cpd 64, 2-(2-thiophen-2-yl-thiazol-4-ylmethyl)-isothiazol-3-one] | 89 | – | 39 | –
41 | Cc1nc(-c2cccc(-n3sc(Cl)cc3=O)c2)cs1 [Cpd 47, 5-chloro-2-[3-(2-methyl-thiazol-4-yl)-phenyl]-isothiazol-3-one] | 100 | 1000 | – | –
42 | N#Cc1cccc(C#Cc2ccc(Cn3sc(Cl)cc3=O)cc2)c1 [Cpd 43, 3-[4-(5-chloro-3-oxo-3H-isothiazol-2ylmethyl)-phenylethynyl]-benzonitrile] | 100 | 1600 | – | –
43 | O=c1c(Cl)c(Cl)sn1Cc1ccc2ccccc2c1 [Cpd 15, 4,5-dichloro-2-naphthalen-2-ylmethyl-isothiazol-3-one] | 75 | 330 | – | –
44 | O=c1cc(Cl)sn1Cc1ccc(S(=O)(=O)c2ccc(F)cc2)cc1 [Cpd 36, 5-chloro-2-[4-(4-fluoro-benzenesulfonyl)-benzyl]-isothiazol-3-one] | 56 | 500 | – | –
45 | CC(=O)c1ccc(Cn2sc(Cl)c(Cl)c2=O)cc1 [Cpd 65, 4,5-dichloro-2-(4-acetylbenzyl)-isothiazol-3-one] | 45 | 400 | – | –
